According to EP4620956A1, “PARP1 INHIBITORS” (Zhejiang Yangli Pharmaceutical Technology Co., Ltd., priority 2022, dated 2024):

What was measured:
PARP2 = target: T1, PARP2 (Homo sapiens, UniProt Q9UGN5); assay: Inhibition of PARP2 enzyme activity (chemiluminescence); format: biochemical
T1 construct: purchased BPS 80502

PARP1 [1] = target: T2, PARP1 (Homo sapiens, UniProt P09874); assay: DNA trapping capability of PARP1 (HTRF); format: biochemical
T2 construct: purchased BPS 80501

A549 PARP2-KO cell line = assay: Cellular PARylation inhibition, high-content imaging, PARP2-KO; format: cell-based; details: PARylation at the cellular level
PARP6 = target: T3, PARP6 (Homo sapiens, UniProt Q2NL67); assay: Inhibition of PARP6 enzyme activity (chemiluminescence); format: biochemical
T3 construct: purchased BPS 80506

PARP7 = target: T4, PARP7 (Homo sapiens, UniProt Q7Z3E1); assay: Inhibition of PARP7 enzyme activity (chemiluminescent assay kit); format: biochemical
T4 construct: purchased BPS 80527
T4 sequence (Q7Z3E1 1-657): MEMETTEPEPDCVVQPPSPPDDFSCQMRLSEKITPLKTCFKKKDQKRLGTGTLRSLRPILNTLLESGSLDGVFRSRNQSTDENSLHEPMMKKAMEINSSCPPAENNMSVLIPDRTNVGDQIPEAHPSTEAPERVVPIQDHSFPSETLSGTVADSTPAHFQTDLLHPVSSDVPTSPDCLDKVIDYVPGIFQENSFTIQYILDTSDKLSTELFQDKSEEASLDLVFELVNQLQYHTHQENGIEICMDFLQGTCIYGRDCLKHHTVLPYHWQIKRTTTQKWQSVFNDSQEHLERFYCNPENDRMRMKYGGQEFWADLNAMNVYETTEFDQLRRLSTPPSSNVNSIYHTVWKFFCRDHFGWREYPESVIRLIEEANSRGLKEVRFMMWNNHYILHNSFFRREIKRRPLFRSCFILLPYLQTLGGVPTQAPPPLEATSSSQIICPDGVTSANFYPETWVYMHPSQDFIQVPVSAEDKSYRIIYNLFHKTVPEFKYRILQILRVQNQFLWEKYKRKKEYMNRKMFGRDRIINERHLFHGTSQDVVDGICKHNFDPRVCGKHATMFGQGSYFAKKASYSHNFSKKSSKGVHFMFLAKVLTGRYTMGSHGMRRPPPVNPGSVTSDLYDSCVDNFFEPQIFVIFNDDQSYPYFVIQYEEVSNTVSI

PARP1 [2] = target: T2, PARP1; assay: PARP1-DNA trapping, fluorescence polarization (FP); format: biochemical
[3] = system: MDA-MB-436 xenograft tumour; assay: Anti-tumour effect in MDA-MB-436 subcutaneous xenograft tumour mouse model; format: in vivo; details: same dose, MDA-MB-436 xenograft mice
Method: Example 4 was further verified in vivo. A subcutaneous xenograft tumour mouse model of the BRCA1-mutated MDA-MB-436 cell line was selected. Human breast cancer MDA-MB-436 cells (ATCC, HTB-130) were cultured in vitro in a monolayer, with the culture conditions of L-15 medium supplemented with 10% foetal bovine serum, 1% penicillin-streptomycin solution, and 0.01 mg/mL bovine insulin, and cultured at 37°C in a CO2-free incubator. The cells were routinely digested and passaged twice a week using trypsin-EDTA. When the cell confluency reached 80%-90%, the cells were harvested and counted, and 0.2 mL of 1 × 10^7 MDA-MB-436 cells were subcutaneously inoculated on the right back of each mouse (PBS : Matrigel = 1 : 1). When the mean tumour volume reached 152 mm^3, the mice were grouped for drug administration. The day of drug administration was set as Day 0. The tumour volume and the body weight of the mice were monitored twice a week, and the drug treatment lasted for 28 days.
The diameter of the tumour was measured with a vernier calliper. The tumour volume is calculated according to the following equation: V = 0.5a × b^2, where a and b represent the long and short diameters of the tumour, respectively. The tumour inhibition effect of the compound was evaluated by relative tumour shrinkage rate Reg%. Reg% reflects the rate of tumour volume reduction after treatment. Reg% = (V0-Vt)/V0×100%, where V0 is the tumour volume measured at the time of grouping for drug administration (i.e., d0), and Vt is the tumour volume measured at a certain time point.
The criteria for compound response in the mouse model were adapted from mRECIST (Modified Response Evaluation Criteria in Solid Tumours) (Gao et al, 2015), and are specifically defined as follows: [formula] • PR (Partial Response): BestResponse < −50% and BestAvgResponse < −20%; [formula] • SD (Stable Disease): BestResponse < 35% and BestAvgResponse < 30%; [formula] • PD (Progressive Disease): other cases; • ORR% is the sum of the proportions of Complete Response (CR) and Partial Response (PR).
Statistical analysis was performed using Prism software, including the mean value (Mean) and standard error of the mean (SEM) of the tumour volume at each time point for each group. For the statistical analysis of TV, the original TV data from each measurement were used to compare the differences between groups. Two-way ANOVA was applied to include the two factors, i.e., drug administration and time for analysis, followed by the Tukey's multiple comparisons test, wherein p < 0.05 was considered statistically significant.

[4] = ratio relative to the PARP1 enzyme activity

T2 sequence (P09874 whole entry): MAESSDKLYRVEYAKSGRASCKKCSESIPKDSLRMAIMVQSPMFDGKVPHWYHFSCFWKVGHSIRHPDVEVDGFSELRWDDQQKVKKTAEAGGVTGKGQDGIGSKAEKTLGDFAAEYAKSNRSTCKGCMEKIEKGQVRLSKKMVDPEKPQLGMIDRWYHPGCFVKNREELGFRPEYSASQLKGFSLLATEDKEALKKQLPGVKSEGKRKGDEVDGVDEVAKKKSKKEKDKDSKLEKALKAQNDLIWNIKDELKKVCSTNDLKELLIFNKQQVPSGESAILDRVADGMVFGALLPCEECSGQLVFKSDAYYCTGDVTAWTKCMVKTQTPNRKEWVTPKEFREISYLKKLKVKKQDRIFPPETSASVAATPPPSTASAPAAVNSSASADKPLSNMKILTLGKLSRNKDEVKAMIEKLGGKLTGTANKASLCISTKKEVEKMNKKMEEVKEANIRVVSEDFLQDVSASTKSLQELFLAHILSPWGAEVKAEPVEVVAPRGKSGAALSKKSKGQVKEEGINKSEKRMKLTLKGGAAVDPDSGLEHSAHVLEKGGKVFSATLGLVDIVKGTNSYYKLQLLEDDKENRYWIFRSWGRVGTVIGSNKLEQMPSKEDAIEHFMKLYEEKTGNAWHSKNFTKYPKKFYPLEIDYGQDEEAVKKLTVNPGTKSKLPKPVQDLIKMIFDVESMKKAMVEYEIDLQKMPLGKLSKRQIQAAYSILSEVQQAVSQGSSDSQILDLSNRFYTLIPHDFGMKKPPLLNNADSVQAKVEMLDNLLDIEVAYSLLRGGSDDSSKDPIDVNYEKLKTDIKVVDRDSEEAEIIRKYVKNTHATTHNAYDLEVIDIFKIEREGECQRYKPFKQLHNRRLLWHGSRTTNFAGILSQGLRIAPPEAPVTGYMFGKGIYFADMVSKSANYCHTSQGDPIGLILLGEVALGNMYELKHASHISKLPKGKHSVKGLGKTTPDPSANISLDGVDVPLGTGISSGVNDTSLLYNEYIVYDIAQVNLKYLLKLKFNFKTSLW
T3 sequence (Q2NL67 whole entry): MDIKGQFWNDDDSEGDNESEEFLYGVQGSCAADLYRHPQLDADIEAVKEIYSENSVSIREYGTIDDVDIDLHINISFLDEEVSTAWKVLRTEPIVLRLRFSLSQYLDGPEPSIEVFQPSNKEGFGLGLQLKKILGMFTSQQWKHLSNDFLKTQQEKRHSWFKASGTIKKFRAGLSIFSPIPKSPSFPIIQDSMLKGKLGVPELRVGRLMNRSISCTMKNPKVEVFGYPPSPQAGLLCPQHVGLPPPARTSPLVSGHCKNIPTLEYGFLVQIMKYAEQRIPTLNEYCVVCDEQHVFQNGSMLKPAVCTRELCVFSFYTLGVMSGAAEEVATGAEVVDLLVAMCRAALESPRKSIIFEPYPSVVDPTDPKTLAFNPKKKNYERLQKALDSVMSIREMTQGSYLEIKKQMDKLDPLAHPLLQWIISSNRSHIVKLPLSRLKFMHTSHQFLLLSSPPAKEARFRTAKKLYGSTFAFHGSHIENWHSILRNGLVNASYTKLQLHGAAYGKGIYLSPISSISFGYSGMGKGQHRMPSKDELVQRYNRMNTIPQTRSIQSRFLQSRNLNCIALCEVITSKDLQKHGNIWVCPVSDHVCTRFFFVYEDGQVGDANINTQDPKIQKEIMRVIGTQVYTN
T1 sequence (Q9UGN5 whole entry): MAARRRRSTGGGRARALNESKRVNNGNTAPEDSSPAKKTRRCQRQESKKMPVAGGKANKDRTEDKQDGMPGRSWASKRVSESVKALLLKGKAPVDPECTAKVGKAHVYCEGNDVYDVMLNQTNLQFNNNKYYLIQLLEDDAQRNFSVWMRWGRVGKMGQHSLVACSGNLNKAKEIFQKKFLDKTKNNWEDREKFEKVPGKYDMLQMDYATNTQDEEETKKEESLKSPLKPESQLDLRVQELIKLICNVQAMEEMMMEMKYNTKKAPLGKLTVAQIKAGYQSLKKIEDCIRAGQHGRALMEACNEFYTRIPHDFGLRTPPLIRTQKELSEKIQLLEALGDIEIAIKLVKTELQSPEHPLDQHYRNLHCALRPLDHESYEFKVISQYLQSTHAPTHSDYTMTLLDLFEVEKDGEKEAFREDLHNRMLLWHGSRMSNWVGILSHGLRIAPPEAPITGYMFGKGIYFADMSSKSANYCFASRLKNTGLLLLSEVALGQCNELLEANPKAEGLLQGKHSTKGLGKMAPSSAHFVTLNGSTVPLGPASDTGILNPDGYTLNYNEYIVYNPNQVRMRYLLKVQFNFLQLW

[2H]C([2H])([2H])NC(=O)c1ccc(N2CCN(Cc3cnc4c(N)c(CC)c(=O)[nH]c4c3)CC2)c(F)n1 [Example 4, 5-(4-((8-Amino-7-ethyl-6-oxo-5,6-dihydro-1,5-naphthyridin-3-yl)methyl)piperazin-1-yl)-6-fluoro-N-(methyl-d3)picolinamide]
IC50 (PARP2): 18.6 nM | EC50 (PARP1 [1]): 3.8 nM | IC50 (A549 PARP2-KO cell line; Homo sapiens, A549, read-out: PARP2-KO IC50): 7.7 nM | PARP1 KO/PARP2 KO selectivity fold (A549 PARP2-KO cell line): >5222 fold | IC50 (PARP6; enzyme activity): > 10000 nM | PARP6 multiple vs PARP1 (PARP6; [4]): ∞ | IC50 (PARP7; enzyme activity): > 10000 nM | PARP7 multiple vs PARP1 (PARP7; [4]): ∞ | capability to induce PARP1-DNA trapping higher than that of Olaparib (PARP1 [2]; 2-hour time point, relative to Olaparib): 48 fold | PARP1-DNA trapping activity stronger than that of AZD5305 (PARP1 [2]; 54-hour time point, relative to AZD5305): 14 fold | time over which PARP1-DNA trapping activity could be maintained (PARP1 [2]; FP, PARP1): more than 54 hours | Bottom (PARP1 [2]; PARP1, 0.25 hour): -8.7 | EC50 (PARP1 [2]; PARP1, 0.25 hour): 3.11 nM | Hillslope (PARP1 [2]; PARP1, 0.25 hour): 2.8 | Top (PARP1 [2]; PARP1, 0.25 hour): 108.7 | Bottom (PARP1 [2]; PARP1, 0.5 hour): -6.3 | EC50 (PARP1 [2]; PARP1, 0.5 hour): 2.26 nM | Hillslope (PARP1 [2]; PARP1, 0.5 hour): 2.9 | Top (PARP1 [2]; PARP1, 0.5 hour): 105.6 | Bottom (PARP1 [2]; PARP1, 1 hour): -4.2 | EC50 (PARP1 [2]; PARP1, 1 hour): 2.58 nM | Hillslope (PARP1 [2]; PARP1, 1 hour): 3.1 | Top (PARP1 [2]; PARP1, 1 hour): 109.1 | Bottom (PARP1 [2]; PARP1, 2 hour): -0.8 | EC50 (PARP1 [2]; PARP1, 2 hour): 2.86 nM | Hillslope (PARP1 [2]; PARP1, 2 hour): 3.0 | Top (PARP1 [2]; PARP1, 2 hour): 105.3 | Bottom (PARP1 [2]; PARP1, 4 hour): -5.6 | EC50 (PARP1 [2]; PARP1, 4 hour): 2.99 nM | Hillslope (PARP1 [2]; PARP1, 4 hour): 2.4 | Top (PARP1 [2]; PARP1, 4 hour): 106.8 | Bottom (PARP1 [2]; PARP1, 8 hour): -6.8 | EC50 (PARP1 [2]; PARP1, 8 hour): 3.51 nM | Hillslope (PARP1 [2]; PARP1, 8 hour): 2.6 | Top (PARP1 [2]; PARP1, 8 hour): 107.2 | Bottom (PARP1 [2]; PARP1, 24 hour): -4.4 | EC50 (PARP1 [2]; PARP1, 24 hour): 3.97 nM | Hillslope (PARP1 [2]; PARP1, 24 hour): 1.5 | Top (PARP1 [2]; PARP1, 24 hour): 79.2 | Bottom (PARP1 [2]; PARP1, 30 hour): -8.8 | EC50 (PARP1 [2]; PARP1, 30 hour): 5.46 nM | Hillslope (PARP1 [2]; PARP1, 30 hour): 1.2 | Top (PARP1 [2]; PARP1, 30 hour): 79.1 | Bottom (PARP1 [2]; PARP1, 48 hour): -5.6 | EC50 (PARP1 [2]; PARP1, 48 hour): 4.58 nM | Hillslope (PARP1 [2]; PARP1, 48 hour): 2.0 | Top (PARP1 [2]; PARP1, 48 hour): 51.0 | Bottom (PARP1 [2]; PARP1, 54 hour): -12.8 | EC50 (PARP1 [2]; PARP1, 54 hour): 9.54 nM | Hillslope (PARP1 [2]; PARP1, 54 hour): 0.8 | Top (PARP1 [2]; PARP1, 54 hour): 55.9 | tumour regression ([3]; FIG. 3): promoted tumour regression | ORR ([3]; treatment 28 days): 60%
